This passage reports TGI results from PubChem BioAssay (NCI).

What all share (test): NCI anticancer screen, dose series, 48 h
The subject of test [1] is SR leukemia.
In test [2] the test system is MDA-MB-231 breast.
Test [3] relates to MOLT-4 leukemia.
Test [4] has as its system MALME-3M melanoma.
The test system of test [5] is SK-MEL-5 melanoma.
The subject of test [6] is OVCAR-4 ovarian.
The test system of test [7] is HCT-116 colon.
In test [8] the test system is SF-268 CNS.
Test [9] deals with CCRF-CEM leukemia.
The subject of test [10] is RXF 393 renal.
Test [11] deals with OVCAR-5 ovarian.
The subject of test [12] is OVCAR-3 ovarian.
For test [13], the system named is SNB-19 CNS.
For test [14], the system named is SW-620 colon.
The test system of test [15] is MDA-MB-435.
Test [16] concerns DU-145 prostate.
In test [17] the test system is RPMI-8226 leukemia.
Test [18] concerns NCI-H522 lung.
Test [19] has as its system MCF7 breast.

The structures appear in SMILES notation.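 Cells were grown in 96-well plates and exposed to each compound for 48 hours at five concentrations; endpoints were interpolated linearly between bracketing concentrations, or set to the highest concentration if not reached. TGI is the concentration that stops growth completely.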

`CC1=CC(=O)c2cccc(O)c2C1=O`: the TGI in test [1] was greater than 21.9 µM; in test [2], 3.15 µM; in test [3], greater than 28.3 µM; in test [4], 2.98 µM; in [5] it was 3.29 µM; in test [6], 3.39 µM. In addition, the TGI in [7] worked out at 3.49 µM; in test [8] it was 14.6 µM; in test [9], 14.7 µM; in test [10], 3.36 µM; in test [11], 14.8 µM; in test [12], 2.96 µM. The TGI in test [13] was 17.4 µM; in test [14] it was 4.08 µM; in test [15], 3.28 µM; in test [16], 20.6 µM; in test [17], greater than 40.3 µM; in test [18] it was 5.42 µM.

As to `O=c1[nH]ncc2[nH]c3c(c12)CCCc1ccccc1-3`, the TGI in test [3], in test [4], in test [5], in test [6], in test [7] and in test [19] was greater than 100 µM throughout. Also, the TGI was greater than 100 µM in [8]; greater than 100 µM in [9]; 41.9 µM in test [10]; greater than 100 µM in test [11]; greater than 100 µM in [12]; greater than 100 µM in [13]. The TGI was greater than 100 µM in test [14]; 82.9 µM in test [15]; greater than 100 µM in test [16]; 84.9 µM in test [17]; greater than 100 µM in test [18].

Turning to `Cc1c2ccccc2nc2[nH]c3ccncc3c12`, the TGI in [1] was greater than 100 µM; in [2] it was greater than 100 µM; in [3] it was greater than 100 µM; in test [4], 66.6 µM; in [5], 95 µM; in test [6], greater than 100 µM. Also, the TGI was 32.8 µM in test [8]; 10.9 µM in test [9]; 95 µM in test [11]; 91.9 µM in [12]; greater than 100 µM in test [13]; greater than 100 µM in test [14]. Besides, the TGI in test [15] is greater than 100 µM; in test [16] it was greater than 100 µM; in test [17], 77.7 µM; in test [18], greater than 100 µM.

For the compound `Cc1ccc(-c2n[nH]c(CC#N)n2)cc1`, the TGI in test [1], in test [3], in test [4], in test [5], in test [6] and in test [7] was greater than 100 µM in each case. Besides, the TGI in test [19], in test [8], in [9], in test [10], in test [11] and in [12] was greater than 100 µM in each case. The TGI in [13], in test [14], in test [15], in [16] and in test [18] was greater than 100 µM in each case.

For the compound `COc1ccc(/C=C/c2cc(=O)cc(/C=C/c3ccc(OC)c(O)c3)o2)cc1O`, the TGI is 2.89 µM in [1]; 5.73 µM in test [2]; 4.9 µM in test [3]; 4.98 µM in [5]; 9.77 µM in test [6]; 7 µM in test [7]. Moreover, the TGI in test [19] was 5 µM; in test [8] it was greater than 75.9 µM; in test [9], 5.91 µM; in test [10], 2.96 µM; in test [11], 24 µM; in [12] it was 6.51 µM. The TGI in test [13] was greater than 39 µM; in test [14], greater than 21.8 µM; in test [16], greater than 29.3 µM; in test [17] it was 1.99 µM; in test [18] it was greater than 100 µM.

On to `O=c1cc2oc3ccc4ccccc4c3cc-2c(=O)[nH]1`, for which the TGI in test [1] is 11 µM; in test [3] it was 8.02 µM; in test [4], 30.3 µM; in test [5], 29.3 µM; in test [6], 48.5 µM; in [7], 31.2 µM. For the same compound, the TGI stood at 38.5 µM in [19]; 28.4 µM in test [8]; 2.6 µM in test [9]; 32.4 µM in test [11]; 24.4 µM in test [12]; 27.2 µM in [13]. Also, the TGI in test [14] was 5.3 µM; in test [15], 25 µM; in test [16] it was 27.6 µM; in [17] it was greater than 100 µM; in test [18] it was 27.9 µM.

Take `CCCCNC(=O)C1=C(C)NC(C)=C(C(=O)NCCCC)C1`: the TGI in test [2], in test [3], in [5], in test [6], in test [7] and in test [19] was greater than 100 µM each time. Further, the TGI in test [8], in test [10], in [11], in test [12], in [13] and in test [14] was greater than 100 µM in each case. Also, the TGI in test [15] and in test [16] was greater than 100 µM in each case.

As for `CCOC(=O)c1c(SCC#N)n(-c2ccccc2)c(=S)n(-c2ccccc2)c1=O`, the TGI in test [1] was greater than 100 µM; in test [3] it was 67.6 µM; in test [4], greater than 100 µM; in [5], greater than 100 µM; in [6], greater than 100 µM; in test [7] it was greater than 100 µM. Further, the TGI in [19], in test [8], in test [9], in [11], in [12] and in [13] was greater than 100 µM each time. In addition, the TGI in test [14], in [15], in test [16], in test [17] and in test [18] was greater than 100 µM in each case.
